Consider 7 molecules from patent US10351718B2, “Optical filter and imaging device” (AGC Inc., priority 2015, dated 2019).

Data set [1] can be described thus: Solubility of dye to resin solution. Conditions: for Solubility Evaluation / Solubility: 12.5 mass % polyester resin OKP850 in cyclohexanone:MIBK 1:1, 50° C.; for Solubility: stirred two hours, visual; for Solubility to the resin solution (in words): polyester resin OKP850 solution, 50° C., compared to dyes without branch structure in R^1. The format is physicochemical. As to the method: Regarding several kinds of the dyes obtained above, solubility to a resin solution was evaluated. In a solubility test, as the resin solution, there was used a solution having a resin concentration of 12.5 mass % that was prepared by dissolving a polyester resin (product name: OKP850 made by Osaka Gas Chemicals Co., Ltd.) in a mixed solvent (cyclohexanone:methyl isobutyl ketone (MIBK)=1:1). Results are illustrated in Table 5 together with the kinds of the used dyes. Incidentally, the temperature of the resin solution in the solubility test was 50° C., the dye was put into the resin solution, the resultant resin solution was stirred for two hours, and whether or not the dye was dissolved was observed visually. Evaluation criteria of the solubility are as follows.
A: Solubility greater than 10 mass %
B: Solubility greater than 5 mass % and 10 mass % or less
C: Solubility 5 mass % or less

Data set [2] in a line: Absorption characteristic of the dye in dichloromethane. The format is physicochemical. Conditions: for λ80 (wavelength with 80% transmittance on shorter wavelength side of λmax) / λmax − λ80: dichloromethane, transmittance at λmax set to 10%; for εA (maximum absorption coefficient in a wavelength of 430 to 550 nm) / εB (maximum absorption coefficient in a wavelength of 670 to 730 nm) / εB/εA / λmax (maximum absorption wavelength): dissolved in dichloromethane. As to the method: The dyes obtained above were each dissolved in dichloromethane, and using an ultraviolet-visible spectrophotometer (made by Hitachi High Technologies Co., Ltd., U-4100 type), each spectral transmittance curve was measured, from which a maximum absorption wavelength λmax, a wavelength λ80 with which the transmittance becomes 80% on a shorter wavelength side than the maximum absorption wavelength with the transmittance at the maximum absorption wavelength set to 10%, the difference between the maximum absorption wavelength λmax and the wavelength λ80 (λmax−λ80), a maximum absorption coefficient εA in a wavelength of 430 to 550 nm, a maximum absorption coefficient εB in a wavelength of 670 to 730 nm, and a ratio of these (εB/εA) were calculated. Note that measurement of the dye (A9) was not performed because its solubility was low. Further, for each of the following spectral transmittance curves, an ultraviolet-visible spectrophotometer (made by Hitachi High Technologies Co., Ltd., U-4100 type) was used.

Consider `CC1N(C)c2cc(NS(=O)(=O)c3ccc(C(F)(F)F)cc3)c(C3=C([O-])C(=c4cc5c(cc4NS(=O)(=O)c4ccc(C(F)(F)F)cc4)=[N+](C)C(C)C5(C)C)C3=O)cc2C1(C)C` (stereo not drawn) [Dye A1-8], for which, in data set [1], the “Solubility Evaluation” value is “C (5 mass % or less)” and the Solubility worked out at 3 mass %. For the same molecule, in data set [2], the “λ80 (wavelength with 80% transmittance on shorter wavelength side of λmax)” value worked out at 634 nm, the “λmax − λ80” value worked out at 61 nm, the “εA (maximum absorption coefficient in a wavelength of 430 to 550 nm)” value came out at 0.0117 and the “εB (maximum absorption coefficient in a wavelength of 670 to 730 nm)” value is 1. Moreover, in data set [2], the εB/εA is listed as 85.5 and the “λmax (maximum absorption wavelength)” value is reported as 695 nm.

In the case of `CC1N(C)c2cc(NS(=O)(=O)C(F)(F)F)c(C3=C([O-])C(=c4cc5c(cc4NS(=O)(=O)C(F)(F)F)=[N+](C)C(C)C5(C)C)C3=O)cc2C1(C)C` (stereo not drawn) [Dye A1-2], in data set [1], the “Solubility Evaluation” value is reported as “C (5 mass % or less)” and the Solubility turned out to be 5 mass %. For the same molecule, in data set [2], the “λ80 (wavelength with 80% transmittance on shorter wavelength side of λmax)” value is on record as 634 nm, the “λmax − λ80” value is given as 63 nm, the “εA (maximum absorption coefficient in a wavelength of 430 to 550 nm)” value worked out at 0.0066 and the “εB (maximum absorption coefficient in a wavelength of 670 to 730 nm)” value was 1. In addition, in data set [2], the εB/εA is recorded as 152 and the “λmax (maximum absorption wavelength)” value is listed as 697 nm.

As to `CC(C)N1c2cc(NS(=O)(=O)C(F)(F)F)c(C3=C([O-])C(=c4cc5c(cc4NS(=O)(=O)C(F)(F)F)=[N+](C(C)C)C(C)C5(C)C)C3=O)cc2C(C)(C)C1C` (stereo not drawn) [Dye A1-9], in data set [1], the “Solubility Evaluation” value was “A (greater than 10 mass %)”, the Solubility turned out to be 12 mass % and the “Solubility to the resin solution (in words)” value (“Solubility … (in words)” below) is “high solubility”. In addition, in data set [2], the “λ80 (wavelength with 80% transmittance on shorter wavelength side of λmax)” value stood at 651 nm, the “λmax − λ80” value was found to be 52 nm, the “εA (maximum absorption coefficient in a wavelength of 430 to 550 nm)” value was 0.0082 and the “εB (maximum absorption coefficient in a wavelength of 670 to 730 nm)” value is recorded as 1. Also, in data set [2], the εB/εA is listed as 122 and the “λmax (maximum absorption wavelength)” value turned out to be 703 nm.

For `CC(C)N1c2cc(NS(=O)(=O)c3ccc(C(F)(F)F)cc3)c(C3=C([O-])C(=c4cc5c(cc4NS(=O)(=O)c4ccc(C(F)(F)F)cc4)=[N+](C(C)C)C(C)C5(C)C)C3=O)cc2C(C)(C)C1C` (stereo not drawn) [Dye A1-16], in data set [1], the “Solubility Evaluation” value is on record as “A (greater than 10 mass %)”, the Solubility turned out to be 12 mass % and the “Solubility … (in words)” value is recorded as “high solubility”. Further, in data set [2], the “λ80 (wavelength with 80% transmittance on shorter wavelength side of λmax)” value is on record as 650 nm, the “λmax − λ80” value is recorded as 52 nm, the “εA (maximum absorption coefficient in a wavelength of 430 to 550 nm)” value is on record as 0.0111 and the “εB (maximum absorption coefficient in a wavelength of 670 to 730 nm)” value came out at 1. Further, in data set [2], the εB/εA came out at 90.1 and the “λmax (maximum absorption wavelength)” value was determined as 702 nm.

Regarding `CCCCCCCCS(=O)(=O)Nc1cc2c(cc1C1=C([O-])C(=c3cc4c(cc3NS(=O)(=O)CCCCCCCC)=[N+](C)C(C)C4(C)C)C1=O)C(C)(C)C(C)N2C` (stereo not drawn) [Dye A1-1], in data set [1], the “Solubility Evaluation” value is “C (5 mass % or less)” and the Solubility is given as 1 mass %. In data set [2], the “λ80 (wavelength with 80% transmittance on shorter wavelength side of λmax)” value was 630 nm, the “λmax − λ80” value is recorded as 61 nm, the “εA (maximum absorption coefficient in a wavelength of 430 to 550 nm)” value was 0.0130 and the “εB (maximum absorption coefficient in a wavelength of 670 to 730 nm)” value is 1. Moreover, in data set [2], the εB/εA came out at 76.9 and the “λmax (maximum absorption wavelength)” value is on record as 691 nm.

For the molecule `CCCCCCCCS(=O)(=O)Nc1cc2c(cc1C1=C([O-])C(=c3cc4c(cc3NS(=O)(=O)CCCCCCCC)=[N+](C(C)C)C(C)C4(C)C)C1=O)C(C)(C)C(C)N2C(C)C` (stereo not drawn) [Dye A1-15], in data set [1], the “Solubility Evaluation” value is “A (greater than 10 mass %)”, the Solubility is reported as 15 mass % and the “Solubility … (in words)” value is given as “high solubility”. Besides, in data set [2], the “λ80 (wavelength with 80% transmittance on shorter wavelength side of λmax)” value was 646 nm, the “λmax − λ80” value is listed as 52 nm, the “εA (maximum absorption coefficient in a wavelength of 430 to 550 nm)” value stood at 0.0112 and the “εB (maximum absorption coefficient in a wavelength of 670 to 730 nm)” value was found to be 1. In data set [2], the εB/εA came out at 89.3 and the “λmax (maximum absorption wavelength)” value worked out at 698 nm.

On to `CCCCCCCCS(=O)(=O)Nc1cc2c(cc1C1=C([O-])C(=c3cc4c(cc3NS(=O)(=O)CCCCCCCC)=[N+](C(C)(C)CC)C(C)C4(C)C)C1=O)C(C)(C)C(C)N2C(C)(C)CC` (stereo not drawn) [Dye A1-21], for which, in data set [1], the “Solubility Evaluation” value is listed as “A (greater than 10 mass %)”, the Solubility is listed as 12 mass % and the “Solubility … (in words)” value is listed as “high solubility”. Besides, in data set [2], the “λ80 (wavelength with 80% transmittance on shorter wavelength side of λmax)” value was determined as 656 nm, the “λmax − λ80” value amounted to 49 nm, the “εA (maximum absorption coefficient in a wavelength of 430 to 550 nm)” value stood at 0.0143 and the “εB (maximum absorption coefficient in a wavelength of 670 to 730 nm)” value turned out to be 1. In data set [2], the εB/εA was 69.9 and the “λmax (maximum absorption wavelength)” value stood at 705 nm.
